Laboratory results as given in ChEMBL document CHEMBL1201862, “PubChem BioAssay data set” (2004).
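Dose response: 5 concentrations. Exposure: 48 h. Format: 96-well plates. Endpoint: linear interpolation; highest concentration if not reached. At the GI50, growth is halved.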 Calls of active or inactive are those of the source. Cut-off read from the data, not from the text of the source: active = GI50 up to about 1.1 µM and inactive = higher.

Legend:
Experiment in all cases: DTP human tumour cell line panel, 48 h
COLO 205 = tested on: COLO 205
MOLT-4 = tested on: MOLT-4
CCRF-CEM = tested on: CCRF-CEM
TK-10 = tested on: TK-10
SK-MEL-28 = tested on: SK-MEL-28
LOX IMVI = tested on: LOX IMVI
HCT-15 = tested on: HCT-15
OVCAR-3 = tested on: OVCAR-3
HCC 2998 = tested on: HCC 2998
HCT-116 = tested on: HCT-116
KM12 = tested on: KM12
RXF 393 = tested on: RXF 393
A498 = tested on: A498
MDA-MB-435 = tested on: MDA-MB-435
NCI-H460 = tested on: NCI-H460
EKVX = tested on: EKVX
A549 = tested on: A549
SNB-75 = tested on: SNB-75
SK-OV-3 = tested on: SK-OV-3

Structure (SMILES)	GI50 (COLO 205)	GI50 (MOLT-4)	GI50 (CCRF-CEM)	GI50 (TK-10)	GI50 (SK-MEL-28)	GI50 (LOX IMVI)	GI50 (HCT-15) [µM]	GI50 (OVCAR-3)	GI50 (HCC 2998)	GI50 (HCT-116)	GI50 (KM12)	GI50 (RXF 393)	GI50 (A498)	GI50 (MDA-MB-435)	GI50 (NCI-H460)	GI50 (EKVX)	GI50 (A549)	GI50 (SNB-75)	GI50 (SK-OV-3)
O=S(=O)(N/C(=N\O)Nc1ccc(Cl)cc1)c1ccc(S(=O)(=O)c2ccccc2)s1	15.7 µM (inactive)	12.9 µM (inactive)	19.1 µM (inactive)	23.8 µM (inactive)	17.7 µM (inactive)	15.5 µM (inactive)	28.1	18.4 µM (inactive)	14.3 µM (inactive)	16.7 µM (inactive)	20.6 µM (inactive)	24 µM (inactive)	15.5 µM (inactive)	17 µM (inactive)	14.4 µM (inactive)	18.8 µM (inactive)	28.6 µM (inactive)	–	–
Cc1c(C)c2c(c(N)c1C#N)C(=O)N(CCN1CCNCC1)C2=O	22.5 µM (inactive)	30.5 µM (inactive)	33.4 µM (inactive)	36.7 µM (inactive)	38.3 µM (inactive)	20.1 µM (inactive)	35.6	33.3 µM (inactive)	31.6 µM (inactive)	16.1 µM (inactive)	45.4 µM (inactive)	22.4 µM (inactive)	22.2 µM (inactive)	33.5 µM (inactive)	29.9 µM (inactive)	39 µM (inactive)	29.6 µM (inactive)	26.2 µM (inactive)	–
O=C(/C=C/c1ccsc1)c1ccsc1	22.4 µM (inactive)	17.6 µM (inactive)	19.1 µM (inactive)	23.8 µM (inactive)	37.1 µM (inactive)	19.1 µM (inactive)	19.1	–	19.5 µM (inactive)	16.2 µM (inactive)	18.9 µM (inactive)	–	37.5 µM (inactive)	22.5 µM (inactive)	23.7 µM (inactive)	70.5 µM (inactive)	38.2 µM (inactive)	37 µM (inactive)	> 100 µM (inactive)
Cc1ccc([N+](=O)[O-])cc1S(=O)(=O)Nc1ccc(C2=NNC(c3ccccc3)C2)cc1 (stereo not drawn)	16.9 µM (inactive)	6.64 µM (inactive)	–	19.8 µM (inactive)	25.2 µM (inactive)	–	10.4	4.74 µM (inactive)	18.7 µM (inactive)	13.1 µM (inactive)	13.4 µM (inactive)	8.36 µM (inactive)	13.2 µM (inactive)	17.1 µM (inactive)	15.1 µM (inactive)	21 µM (inactive)	19.1 µM (inactive)	24.8 µM (inactive)	15.5 µM (inactive)
O=C1CC(c2cccc([N+](=O)[O-])c2)C2(C(=O)NC(=S)NC2=O)C(c2cccc([N+](=O)[O-])c2)C1 (stereo not drawn)	24.4 µM (inactive)	66.4 µM (inactive)	27.6 µM (inactive)	13.9 µM (inactive)	52.8 µM (inactive)	16.5 µM (inactive)	25.5	35.2 µM (inactive)	20.2 µM (inactive)	18.7 µM (inactive)	26.6 µM (inactive)	–	> 100 µM (inactive)	23.5 µM (inactive)	35.6 µM (inactive)	20.4 µM (inactive)	31 µM (inactive)	43.4 µM (inactive)	32.7 µM (inactive)
CC1(C)C2CC(=O)C1(C)C(O)C2Br (stereo not drawn)	–	> 100 µM (inactive)	> 100 µM (inactive)	> 100 µM (inactive)	> 100 µM (inactive)	–	> 100	> 100 µM (inactive)	> 100 µM (inactive)	> 100 µM (inactive)	> 100 µM (inactive)	> 100 µM (inactive)	> 100 µM (inactive)	> 100 µM (inactive)	> 100 µM (inactive)	> 100 µM (inactive)	> 100 µM (inactive)	–	> 100 µM (inactive)
COC1(OC)CCc2c(sc3ncnc(Nc4cccc(Br)c4)c23)C1	35.4 µM (inactive)	14.2 µM (inactive)	–	10.6 µM (inactive)	–	35.7 µM (inactive)	30.8	> 100 µM (inactive)	> 100 µM (inactive)	39.3 µM (inactive)	33.4 µM (inactive)	22.9 µM (inactive)	> 100 µM (inactive)	62.2 µM (inactive)	40.7 µM (inactive)	11.2 µM (inactive)	25.9 µM (inactive)	26.5 µM (inactive)	> 100 µM (inactive)
Clc1ccc(C(OCn2ccnc2)c2nc3ccccc3[nH]2)c(Cl)c1 (stereo not drawn)	34 µM (inactive)	29.6 µM (inactive)	38.6 µM (inactive)	31.7 µM (inactive)	48.3 µM (inactive)	32.4 µM (inactive)	27.7	23.5 µM (inactive)	45.5 µM (inactive)	33.8 µM (inactive)	> 100 µM (inactive)	–	38.2 µM (inactive)	25.2 µM (inactive)	24.5 µM (inactive)	66.2 µM (inactive)	43.4 µM (inactive)	28.9 µM (inactive)	–
C[n+]1ccccc1/C=C/c1ccc2c(c1)OCO2	4.55 µM (inactive)	> 10 µM (inactive)	> 10 µM (inactive)	> 10 µM (inactive)	> 10 µM (inactive)	> 10 µM (inactive)	> 10	> 10 µM (inactive)	> 10 µM (inactive)	> 10 µM (inactive)	> 10 µM (inactive)	> 10 µM (inactive)	> 10 µM (inactive)	> 10 µM (inactive)	> 10 µM (inactive)	> 10 µM (inactive)	4.59 µM (inactive)	–	> 10 µM (inactive)
COc1ccc(CCN2C(=O)CC34C=CC(CC3C2=O)O4)cc1OC (stereo not drawn)	> 100 µM (inactive)	> 100 µM (inactive)	> 100 µM (inactive)	> 100 µM (inactive)	> 100 µM (inactive)	> 100 µM (inactive)	> 100	> 100 µM (inactive)	> 100 µM (inactive)	> 100 µM (inactive)	> 100 µM (inactive)	–	> 100 µM (inactive)	> 100 µM (inactive)	–	> 100 µM (inactive)	> 100 µM (inactive)	–	> 100 µM (inactive)
CC(=O)OCC1OC(OCC2OC(N3C(=S)N[C@H]([C@@H](O)[C@H](O)[C@H](O)CO)[C@H]3O)C(OC(C)=O)C(OC(C)=O)C2OC(C)=O)C(OC(C)=O)C(OC(C)=O)C1OC(C)=O (stereo partly drawn)	> 100 µM (inactive)	> 100 µM (inactive)	–	> 100 µM (inactive)	> 100 µM (inactive)	–	> 100	> 100 µM (inactive)	> 100 µM (inactive)	> 100 µM (inactive)	> 100 µM (inactive)	> 100 µM (inactive)	> 100 µM (inactive)	> 100 µM (inactive)	> 100 µM (inactive)	–	> 100 µM (inactive)	–	> 100 µM (inactive)
C=CCOCn1ccc(=O)[nH]c1=O	> 100 µM (inactive)	> 100 µM (inactive)	> 100 µM (inactive)	> 100 µM (inactive)	> 100 µM (inactive)	> 100 µM (inactive)	> 100	–	> 100 µM (inactive)	> 100 µM (inactive)	> 100 µM (inactive)	–	> 100 µM (inactive)	> 100 µM (inactive)	> 100 µM (inactive)	> 100 µM (inactive)	> 100 µM (inactive)	> 100 µM (inactive)	> 100 µM (inactive)
Cc1n[nH]c(=O)n1/N=C/c1ccc([N+](=O)[O-])cc1	> 100 µM (inactive)	> 100 µM (inactive)	> 100 µM (inactive)	> 100 µM (inactive)	> 100 µM (inactive)	> 100 µM (inactive)	> 100	> 100 µM (inactive)	> 100 µM (inactive)	> 100 µM (inactive)	> 100 µM (inactive)	61.2 µM (inactive)	> 100 µM (inactive)	> 100 µM (inactive)	> 100 µM (inactive)	60.7 µM (inactive)	> 100 µM (inactive)	41.1 µM (inactive)	–
Cc1ccccc1Nc1cn(CCOc2ccccc2)c(=O)n(CCOc2ccccc2)c1=O	96.2 µM (inactive)	> 100 µM (inactive)	> 100 µM (inactive)	–	> 100 µM (inactive)	> 100 µM (inactive)	> 100	> 100 µM (inactive)	> 100 µM (inactive)	> 100 µM (inactive)	> 100 µM (inactive)	> 100 µM (inactive)	> 100 µM (inactive)	> 100 µM (inactive)	> 100 µM (inactive)	> 100 µM (inactive)	> 100 µM (inactive)	–	–
CC[C@H](C)[C@H](NC(=O)[C@@]1(O)[C@H](O)[C@]2(CC)C=CCN3CC[C@@]4(c5cc(Br)c(OC)cc5N(C)[C@@H]14)[C@@H]32)C(=O)OC	14 µM (inactive)	22.8 µM (inactive)	27.8 µM (inactive)	38.3 µM (inactive)	13.2 µM (inactive)	16.8 µM (inactive)	25.7	20.7 µM (inactive)	23.8 µM (inactive)	25.5 µM (inactive)	27.2 µM (inactive)	45.5 µM (inactive)	25.3 µM (inactive)	20.5 µM (inactive)	24.3 µM (inactive)	40.2 µM (inactive)	20.5 µM (inactive)	–	38 µM (inactive)
O=C(Nc1cccc(Cl)c1)Nn1cnnc1	> 100 µM (inactive)	> 100 µM (inactive)	> 100 µM (inactive)	> 100 µM (inactive)	> 100 µM (inactive)	–	> 100	> 100 µM (inactive)	> 100 µM (inactive)	> 100 µM (inactive)	> 100 µM (inactive)	> 100 µM (inactive)	> 100 µM (inactive)	> 100 µM (inactive)	> 100 µM (inactive)	> 100 µM (inactive)	> 100 µM (inactive)	> 100 µM (inactive)	> 100 µM (inactive)
